The source of these data is patent publication US20240041876A1, “PHARMACEUTICAL COMPOSITION FOR PREVENTION OR TREATMENT OF DEGENERATIVE BRAIN DISEASES COMPRISING ABEMACICLIB AS ACTIVE INGREDIENT” (priority 2020, published 2024).

Data set [1] has as its system BV2 microglia. Briefly: MTT assay, cytotoxicity to BV2 microglia. Format: cell-based. The conditions noted are these: 0.1, 1, 5, 10, 25, or 50 μM; 24 hours in the absence of FBS. The protocol:
Cell viability was measured using the 3-(4,5-dimethylthiazol-2-yl)-2,5-diphenyltetrazolium bromide (MTT) assay. BV2 microglia were seeded in a 96-well plate and treated with various concentrations of abemaciclib mesylate (0.1, 1, 5, 10, 25, 50 μM) for 24 hours in the absence of FBS. Then, the cells were treated with 0.5 mg/ml MTT and incubated at 37° C. for 3 hours in a 5% CO2 incubator, and absorbance was measured at 580 nm.
To determine whether or not abemaciclib is cytotoxic to BV2 microglia, BV2 microglia were treated with abemaciclib at different concentrations (0.1, 1, 5, 10, 25, or 50 μM) and then MTT assay was performed.
For orientation: Tetrazolium assays rely on reduction of a dye to a coloured formazan, in cell work by metabolically active cells.

In data set [2] the test system is 5×FAD mice. Briefly: Abemaciclib versus donepezil: cognitive function in 5×FAD mice (Y maze, NOR). Format: in vivo, mouse. The conditions noted are these: abemaciclib 30 mg/kg or donepezil 1 mg/kg intraperitoneal daily for 14 days.
Protocol: Then, percent alteration=(number of alterations/number of triads)×100 was obtained and used as a parameter of short-term memory. • Alteration: 1 point awarded when the mouse enters three different arms in turn • Triads: Total visits—2
The animal was allowed to start from the center of the box, and the time at which the animal was interested in the object was recorded for 5 minutes. After 24 hours, one of the two objects was replaced with fresh one, the times at which the mouse approached the old object and the fresh object were measured, and the preference for the new object was analyzed and used as a long-term memory analysis index.
Data set [3] has as its system 5×FAD mice. The data set is described as follows: Abemaciclib versus donepezil: astrocyte activity in 5×FAD mice (anti-GFAP, anti-6E10). Format: in vivo, mouse. The conditions noted are these: abemaciclib 30 mg/kg or donepezil 1 mg/kg intraperitoneal daily for 14 days.
The subject of data set [4] is 5×FAD mice. The data set is described as follows: Abemaciclib versus donepezil: tau kinases phospho-GSK-3β and DYRK1A in 5×FAD mice. Format: in vivo, mouse. As to conditions: abemaciclib 30 mg/kg or donepezil 1 mg/kg intraperitoneal daily for 14 days. The protocol:
F1-generation male 5×FAD mice (stock #34848-JAX, B6Cg-Tg APPSwF1Lon, PSEN1*M146L*L286V6799Vas/Mmjax) purchased from Jackson Laboratory were used. 5×FAD mice (3 months old) were bred in a sterile facility under 12-hour light/dark controlled conditions at an ambient temperature of 22° C. After daily administration of abemaciclib (30 mg/kg, intraperitoneal administration) or vehicle (10% DMSO) to 5×FAD mice for 14 days, Y maze test on day 15 and NOR test on day 16 to 17 were performed, followed by fluorescent tissue staining or Golgi staining.
Then, each brain section was subjected to immunohistochemical staining. Brain sections were rinsed in PBS and permeabilized for 1 hour at room temperature using PBS containing 0.2% Triton X-100 and 1% BSA. Then, the primary antibody was diluted in PBST (0.2% Triton X-100 in PBS) and reacted at 4° C. for 24 hours, and the next day, the tissue was washed three times with PBST, and then reacted with a secondary antibody bound with a fluorescent signal at room temperature for 2 hours. Then, the brain sections were washed three times with PBS, placed on slides, and observed under a fluorescence microscope.

Turning to `CCN1CCN(Cc2ccc(Nc3ncc(F)c(-c4cc(F)c5nc(C)n(C(C)C)c5c4)n3)nc2)CC1` [abemaciclib], the “cytotoxicity to BV2 microglia (MTT assay)” value in data set [1] is listed as “did not induce cytotoxicity”.

As for `COc1cc2c(cc1OC)C(=O)C(CC1CCN(Cc3ccccc3)CC1)C2` (stereo not shown) [donepezil], the “short-term memory (Y maze)” value in data set [2] (day 15) is listed as “improved”. For the same molecule, the “long-term memory (NOR test)” value in data set [2] (day 16-17) is listed as “improved”. For the same molecule, in data set [3], the “number of astrocytes directly interacting with amyloid plaques” value is listed as “reduced”. Moreover, in data set [4], the “expression of DYRK1A, a tau kinase, in the cortex” value is “reduced”; the “expression of DYRK1A, a tau kinase, in the hippocampus” value is “reduced”; the “hippocampal phospho-GSK-3β levels” value is recorded as “reduced”.
